Measurements taken from patent US20070087988A1, “Hematopoietic progenitor kinase 1 for modulation of an immune response” (New York University, priority 2005, published 2007).

What was measured:
[1] = tested on: HPK1; test: HPK1 IVK assay in primary splenocytes / T lymphocytes; type: cell-based, mouse; settings: primary T lymphocytes (C57BL/6 splenocytes), 10 nM PGE2, 5 min
Description: Splenocytes from wild type C57BL/6 were harvested, lysed with RBC lysis buffer (Sigma) and stimulated with 1 μg/ml plate bound anti-CD3 and anti-CD28 or 10 nM PGE2 alone (Calbiochem) for 5 min. at 37° C. Whole cell lysates were subjected to immunoprecipitation with anti-HPK1 antibodies #5 and #6, then subjected to IVK as described in Kiefer et al. (1996, EMBO J. 15:7013-7025). Anti-HPK1 antibody #2 was used as a blotting antibody.
Splenocytes from wild type C57BL/6 were harvested, lysed with RBC lysis buffer (Sigma) and stimulated with 1 μg/ml plate bound anti-CD3 and 1 μg/ml soluble anti-CD28 or with 10 nM PGE2 (Calbiochem) for 5 min. at 37° C. Whole cell lysates were subjected to immunoprecipitation with anti-HPK1 antibodies #5 and #6 and then subjected to IVK as described (1). Anti-HPK1 antibody #2 was used as a blotting antibody.

[2] = tested on: murine HPK1; test: IVK assay of HA-tagged murine HPK1 (wild type and mutants) transfected into Jurkat cells; type: cell-based, mouse; settings: Jurkat transfectants
Text: The pcDNA3 vector containing mouse cDNA encoding the HA-tagged wild type murine HPK1 and a proline-rich-deleted construct were constructed by Dr. F. Kiefer (Liu et al., 2000, J. Immunol. 165:1417). QuickChange™ mutagenesis system was used to alter the wild type HPK1 construct to encode the desired point mutations (Stratagene, La Jolla, Calif.). Mutated constructs were sequenced to verify the presence of the desired mutation and for the absence of PCR-generated mutations.
Jurkat T cells (1.5×10^7) were transfected as described in (Chang et al., 1998, Mol. Cell. Biol. 18:4986). Whole cell lysates derived from resting or stimulated transfectants were subjected to immunoprecipitations by the indicated antibodies, and were subjected to in vitro kinase reactions as described in (Kiefer et al., 1996, EMBO J. 15:7013 and (Sawasdikosol et al., 2003, Blood 101:3687). Anti-murine HPK1 #7 antibody was used to detect the ectopically expressed HPK wild type and mutant murine HPK1.
To assess the role of the proline-rich motifs in PGE2-induced HPK1 activation, cells were transfected with constructs that encoded either the HA-tagged wild type HPK1 or a mutant form in which the P1, P2, and P4 proline-rich motifs (HA-ΔP-HPK1) were deleted (FIG. 8A). Transfectants were left untreated, stimulated by 10 pM of PGE2, or stimulated by TCR crosslinking. The ectopically expressed HPK1 proteins were subjected to anti-HA immunoprecipitation and were subjected to IVK assay. […] This limits the possibility that adapter proteins play a role in this process.
To assess the importance of arginine 168, arginine 169 and serine 171 in PGE2-induced HPK1 activation, a panel of mutant HPK1 expression constructs that encode a point mutation at each of these amino acids was created. In these mutants, arginines were changed to lysines and serine was changed to alanine. These mutant HPK1 constructs were transfected into Jurkat cells and the ectopically expressed HA-tagged HPK1 were immunoprecipitated from resting or PGE2 stimulated cells.

[3] = tested on: HPK1; test: HPK1 immune complex in vitro kinase (IVK) assay, endogenous HPK1 from treated Jurkat cells; type: cell-based, human; settings: Jurkat cells, 10 pM PGE2
[4] = biological target: T1, EP2 receptor (Homo sapiens, UniProt P43116); test: IVK assay of HA-HPK1 from 293-EP2 transfectants; type: cell-based; settings: PGE2 stimulation
T1 construct: expressed in transfected cells; host or cells: HEK 293 (293-EP2), also transiently transfected with HA-HPK1
T1 sequence (P43116 whole entry): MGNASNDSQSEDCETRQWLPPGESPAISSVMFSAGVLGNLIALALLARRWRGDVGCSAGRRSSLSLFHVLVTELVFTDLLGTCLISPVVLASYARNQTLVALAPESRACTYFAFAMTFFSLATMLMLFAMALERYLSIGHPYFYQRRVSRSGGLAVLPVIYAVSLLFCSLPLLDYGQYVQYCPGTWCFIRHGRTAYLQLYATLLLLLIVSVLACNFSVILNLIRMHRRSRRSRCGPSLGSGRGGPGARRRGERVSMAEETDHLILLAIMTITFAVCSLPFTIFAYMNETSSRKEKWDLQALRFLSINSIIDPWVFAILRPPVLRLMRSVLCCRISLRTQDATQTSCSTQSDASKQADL

[5] = tested on: tyrosine phosphorylation; test: Anti-phosphotyrosine immunoblotting of Jurkat lysates and HPK1 immunoprecipitates; type: cell-based, human; settings: 10 pM PGE2
Description: Cells were lysed in a buffer containing 1% Nonidet P-40 (NP-40) and 50 mM Tris, pH 7.6, 150 mM NaCl, 1 mM […], 10 mM NaF, 10 mM sodium pyrophosphate, 10 μg/ml each of aprotinin and leupeptin, and 2 mM phenylmethylsulfonyl fluoride (PMSF). The lysates were pre-cleared with protein A-Sepharose™ and subsequently, proteins were immunoprecipitated with either 2 μg of anti-Crk antibody or an equal amount of normal rabbit Ig by incubation at 4° C. for two hours. The beads were washed with 0.1% NP-40 in immunoprecipitation wash buffer (150 mM NaCl, 20 mM HEPES, pH 7.4, 10% glycerol, 1 mM […], 5 mM NaF, and 10 μg/ml each of aprotinin and leupeptin), and the bead-bound proteins were separated by SDS-PAGE. The proteins were transferred to a polyvinylidene fluoride (PVDF) membrane, immunoblotted with the indicated antibodies and developed by the enhanced chemiluminescence (ECL) system (Amersham Corp., Arlington Heights, Ill.).
It has been reported that binding of PGE2 to its GPCR leads to rapid activation of HPK1 kinase activity (Sawasdikosol et al., 2003, Blood 101:3687). […] First, it was assessed whether PGE2 stimulation would induce general tyrosine phosphorylation in the Jurkat T cell line was examined. […]

[6] = tested on: T cells; test: T cell proliferation on anti-CD3/anti-CD28 TCR crosslinking, 3H-thymidine; type: cell-based, mouse
Description: Naïve T cells (2×10^5) were seeded onto a 96-well plate and incubated with 1 μg/ml anti-CD3 and anti-CD28 or 10 μg/ml ConA for three days in the presence or absence of 100 pM PGE2 and then pulsed with 1 μCi/well ^3H thymidine (MP Biomedicals, Irvine, Calif.) for 18 hours before harvesting.
T cells were negatively selected using the Pan T cell isolation kit (Miltenyi Biotech Inc., Auburn, Calif.). […] 2×10^5 Naïve T cells were seeded on a 96-well plate and incubated with various dilutions of anti-CD3 and 1 μg/ml of anti-CD28 for 72 hours in the presence or absence of 1 nM PGE2 and then pulsed with 1 μCi/well ^3H thymidine (MP Biomedicals, Irvine, Calif.) for 18 hours before harvest.

[7] = tested on: T cells; test: Apoptosis of TCR-stimulated T cells, annexin V / 7AAD staining; type: cell-based, mouse
[8] = Example 4, 100 pM PGE2, three days

## CCCCC[C@H](O)/C=C/[C@H]1[C@H](O)CC(=O)[C@@H]1C/C=C\CCCC(=O)O [PGE2, prostaglandin E2]
[1]
  increase in HPK1 kinase activity: three-fold
[2]; 10 pM PGE2
  kinase response of HA-HPK1 (wild type): responded competently
  kinase response of HPK1 proline-rich deleted mutant (HA-ΔP-HPK1): responded to PGE2 stimulation
[2]; PGE2 stimulated
  kinase response of HPK1 serine 171 to alanine mutant to PGE2: ablated the response
  reduction of responsiveness to PGE2 stimulation, HPK1 arginine to lysine mutation at residue 168 or 169: approximately 90%
[3]
  HPK1 catalytic activity (IVK): activate the catalytic activity of HPK1
[4]
  HPK1 kinase activity (IVK), 293-EP2 transfectants: responded robustly
[5]; Jurkat whole cell lysates
  global tyrosine phosphorylation level: no detectable change
[5]; immunoprecipitated HPK1, Jurkat
  tyrosine phosphorylation of HPK1: did not induce detectable tyrosine phosphorylation
[6]; [8]
  inhibition of proliferation, HPK1−/− T cells, anti-CD3/anti-CD28: 18%
  inhibition of proliferation, wild type T cells, anti-CD3/anti-CD28: ~80%
[6]; Example 8, 1 nM PGE2, 72 hours
  inhibition of proliferation, HPK1−/− T cells, TCR cross-linking: ~20%
  inhibition of proliferation, wild type T cells, TCR cross-linking: ~80%
[7]; three days of TCR stimulation with PGE2, 47% in cells not treated with PGE2
  wild type cells undergoing apoptosis (annexin V): over 75%
[7]; three days of TCR stimulation, addition of PGE2
  rate of HPK1−/− T cell apoptosis: did not significantly increase
